Source: patent US9963456B2, “Pyrrolopyrimidine compound or salt thereof and compositions containing the pyrrolopyrimidine compound or salt thereof” (TAIHO PHARMACEUTICAL CO., LTD., priority 2014, dated 2018)

Columns and labels:
[1] = system: human osteo- and soft tissue sarcoma SJCRH30 cell line; assay: Cell growth inhibition 2, SJCRH30; format: cell-based; details: 384-well plate
carbonic anhydrase II = carbonic anhydrase II (Homo sapiens (Human), UniProt P00918); assay: Carbonic anhydrase II enzyme activity inhibition (4-NPA esterase activity); format: biochemical
[2] = system: Human colon cancer HCT-116 cell lines; assay: Antitumor effect on tumor cells transplanted into mice 2; format: in vivo
[3] = system: human acute lymphoblastic leukemia (ALL) CCRF-CEM cell lines; assay: Antitumor effect on tumor cells transplanted into mice 3; format: in vivo; details: CCRF-CEM xenograft in nude mice, 120 mg/kg/day intravenous
[4] = system: human acute lymphoblastic leukemia (ALL) CCRF-CEM cell lines; assay: as above; format: in vivo; details: CCRF-CEM xenograft in nude mice, compound hydrochlorides intravenously, Dunnett's test
Description: (§1) The length and the width of the implanted tumor and the body weight were measured. The tumor volume (TV) was calculated using the following equation (equation D). TV(mm3)=(length×width^2)/2, wherein the unit of length and width is mm (equation D).
(§2) Thereafter, the length and the width of the tumor and the body weight (BWn) on day n were measured over time in the same manner, and the TVn of each mouse was calculated. Further, the relative tumor volume (RTVn) was calculated based on the TVn of each mouse using the following equation (equation E); the treatment/control (T/C) value (%) was calculated based on the mean RTVn of each drug administration group using the following equation (equation F); and the weight change rate (BWCn) was calculated using the following equation (equation G). RTVn=TVn/TV1 (equation E) T/Cn(%)=(mean RTV of each drug administration group on the last day of the test)/(mean RTV of the control group on the last day of the test)×100 (equation F) BWCn (%)=(BWn−BW1)/BW1×100 (equation G) FIGS. 1 and 2, and Table 21 below show the results.
The tumor growth inhibitory effects on human tumors were evaluated as in Test Example 5, except that the compound hydrochloride obtained in Example 122, the compound hydrochloride (Example 64), and human acute lymphoblastic leukemia (ALL) CCRF-CEM cell lines were used, and the animals were assigned to each group in accordance with a stratified randomization procedure when the TV reached 140 to 380 mm3.
At this time, the cell lines were washed in PBS, and suspended in 50% PBS and 50% Matrigel basement membrane matrix (#356237; produced by BD Biosciences) at a concentration of 1×10^8 cells/mL. 0.1 mL of this cell suspension was subcutaneously implanted to the right chest of 6-week-old BALB/cAJcl-nu/nu mice (nude mice) (produced by CLEA Japan, Inc.). The compound hydrochloride (Example 122) was intravenously administered in an amount of 5 mL per 1 kg of body weight on days 1 and 8, and the compound hydrochloride (Example 133) was intravenously administered in an amount of 5 mL per 1 kg of body weight on days 1 and 8.

[5] = system: Human colon cancer HCT-116 cell lines; assay: Antitumor effect on tumor cells transplanted into mice 1; format: in vivo
Description: Human colon cancer HCT-116 cell lines were washed in PBS and suspended at a concentration of 4×10^7 cells/mL. 0.1 mL of this cell suspension was subcutaneously implanted in the right chest of 6-week-old BALB/cAJcl-nu/nu mice (produced by CLEA Japan, Inc.).
as §1
When the TV reached 100 to 300 mm3, the animals were assigned to each group in accordance with a stratified randomization procedure. The day was considered day 1, the TV on the day was considered TV1, and the body weight on the day was considered BW1.
A required amount of the test compound was weighed to prepare an administration solution.
as §2

IC50 [1] | IC50 (carbonic anhydrase II; 4-nitrophenyl acetate esterase activity, absorbance at 405 nm) | inhibitory activity against carbonic anhydrase II (carbonic anhydrase II) | SMILES | T/C15 ([2]; HCT-116 xenograft in mice, 120 mg/kg/day intravenous, administration days 1, 4, 8, 11, day 15) | RTV15 comparison with the control ([2]; HCT-116 xenograft, hydrochloride compound of Example 55, Dunnett's test) | BWC15 Mean ± SD ([2]; body weight change rate, HCT-116 xenograft in mice, 120 mg/kg/day intravenous, days 1, 4, 8, 11, day 15) | T/C15 ([3]; administration days 1, 4, 8, 11, day 15) | BWC15 Mean ± SD ([3]; body weight change rate, days 1, 4, 8, 11, day 15) | RTV comparison with the control on day 15 [4] | T/C15 (%) ([5]; HCT-116 s.c. in BALB/cAJcl-nu/nu mice, 120 mg/kg/day intravenously on days 1, 4, 8, 11, day 15) | RTV15 comparison with the control ([5]; HCT-116 xenograft, Dunnett's test) | BWC15 (%) Mean ± SD ([5]; body weight change, 120 mg/kg/day intravenously on days 1, 4, 8, 11, day 15)
> 10000 nM | 0.012 µM |  | NS(=O)(=O)OC[C@@H]1C[C@@H](n2ccc3c(N[C@H]4CCc5ccccc54)ncnc32)C[C@@H]1O [Comparative Example, N-[(1S)-1-indanyl]-7-[(1R)-3α-hydroxy-4α-(sulfamoyloxymethyl)cyclopentyl]-7H-pyrrolo[2,3-d]pyrimidin-4-amine, reference compound] |  |  |  |  |  |  |  |  | 
 |  | exhibited inhibitory activity | NS(=O)(=O)OC[C@@H]1C[C@@H](n2ccc3c(N[C@H]4CCc5ccccc54)ncnc32)C[C@H]1O [Comparative Example, N-[(1S)-1-indanyl]-7-[(1R)-3α-hydroxy-4α-(sulfamoyloxymethyl)cyclopentyl]-7H-pyrrolo[2,3-d]pyrimidin-4-amine, reference compound] | 51% | significantly lower than that of the control | −8.4 ± 3.2% | 47% | 6.1 ± 2.6% | significantly lower than that of the control | 36% | significantly lower than that of the control | −14.3 ± 5.1%
